Measured values published in ChEMBL document CHEMBL6177946, “Design, synthesis and biological evaluation of Streptazolin analogs as anti-inflammatory agents” (Bioorg Med Chem Lett, 2025).
pIC50: −log10 of the molar value. Activity calls are given as the source filed them. The rule behind the calls is not given here.

Columns and labels:
Staphylococcus aureus = test: Antibacterial activity against Staphylococcus aureus assessed as inhibition of bacterial growth at 100 uM; format: functional, organism-based
RAW264.7 [1] = test: Anti-inflammatory activity against LPS-induced mouse RAW264.7 cells assessed as inhibition of NO production at 100 uM; format: functional, cell-based
Pseudomonas aeruginosa = test: Antibacterial activity against Pseudomonas aeruginosa assessed as inhibition of bacterial growth at 100 uM; format: functional, organism-based
Escherichia coli = test: Antibacterial activity against Escherichia coli assessed as inhibition of bacterial growth at 100 uM; format: functional, organism-based
Bacillus subtilis = test: Antibacterial activity against Bacillus subtilis assessed as inhibition of bacterial growth at 100 uM; format: functional, organism-based
RAW264.7 [2] = test: Pro-inflamamtory activity in LPS-induced mouse RAW264.7 cells assessed as increase in NO production at 100 uM; format: functional, cell-based
RAW264.7 [3] = test: Anti-inflammatory activity against LPS-induced mouse RAW264.7 cells assessed as inhibition of NO production; format: functional, cell-based
[4] = Stability of the compound in dichloromethane measured after 2 months; format: physicochemical; conditions: 1460 h
RAW264.7 [5] = test: Anti-inflammatory activity against LPS-induced mouse RAW264.7 cells assessed as inhibition of TNF-alpha production at 100 uM by ELISA; format: functional
RAW264.7 [6] = test: Anti-inflammatory activity against LPS-induced mouse RAW264.7 cells assessed as inhibition of IL-1 beta production at 100 uM by ELISA; format: functional
RAW264.7 [7] = test: Cytotoxicity against mouse RAW264.7 cells assessed as effect on cell viability at 100 uM; format: toxicity, cell-based; conditions: raw264.7, 100 µM

Row | Compound | Activity (Staphylococcus aureus) | Activity (RAW264.7 [1]) | Activity (Pseudomonas aeruginosa) | Activity (Escherichia coli) | Activity (Bacillus subtilis) | Activity (RAW264.7 [2]) | Activity (RAW264.7 [3]) | pIC50 (RAW264.7 [3]) | Stability [4] | inhibition at 100 µM (RAW264.7 [5]) [%] | inhibition at 100 µM (RAW264.7 [6]) [%] | Activity (RAW264.7 [7])
1 | C/C=C1/C2=CCCN3C(=O)O[C@H]([C@H]1OC(=O)CC)[C@H]23 | inactive | inactive | inactive | inactive | inactive |  |  |  |  |  |  | 
2 | C/C=C1/C2=CCCN3C(=O)O[C@H]([C@H]1OC(=O)c1ccc(C)cc1)[C@H]23 | inactive | Active | inactive | inactive | inactive |  |  |  |  |  |  | 
3 | C/C=C1/C2=CCCN3C(=O)O[C@H]([C@H]1OS(C)(=O)=O)[C@H]23 | inactive | Active | inactive | inactive | inactive |  |  |  |  |  |  | 
4 | C/C=C1/C2=CCCN3C(=O)O[C@H]([C@H]1O)[C@H]23 | inactive |  | inactive | inactive | inactive | Active |  |  |  |  |  | 
5 | C/C=C1/C2=CCCN3C(=O)O[C@H]([C@H]1OC(=O)C(C)(C)C)[C@H]23 | inactive | Active | inactive | inactive | inactive |  |  |  |  |  |  | 
6 | C/C=C1/C2=CCCN3C(=O)O[C@H]([C@H]1OC(=O)CCCC)[C@H]23 | inactive | Active | inactive | inactive | inactive |  | Dose-dependent-effect | 5.06 | Stable | ≤ 60 | > 90 | Non-toxic
7 | C/C=C1/C2=CCCN3C(=O)O[C@H]([C@H]1OC(=O)C(C)C)[C@H]23 | inactive | inactive | inactive | inactive | inactive |  |  |  |  |  |  | 
8 | C/C=C1/C2=CCCN3C(=O)O[C@H]([C@H]1OC(=O)CCC)[C@H]23 | inactive | inactive | inactive | inactive | inactive |  |  |  |  |  |  | 
9 | C/C=C1/C2=CCCN3C(=O)O[C@H]([C@H]1OC(=O)CCCCCCCCCCC)[C@H]23 | inactive | inactive | inactive | inactive | inactive |  |  |  |  |  |  | 
10 | C/C=C1/C2=CCCN3C(=O)O[C@H]([C@@H]1Cl)[C@H]23 | inactive |  | inactive | inactive | inactive |  |  |  |  |  |  | 
11 | C/C=C1/C2=CCCN3C(=O)O[C@H]([C@H]1OS(=O)(=O)CCC)[C@H]23 | inactive | Active | inactive | inactive | inactive |  |  |  |  |  |  | 
12 | C/C=C1/C2=CCCN3C(=O)O[C@H]([C@H]1OC(C)=O)[C@H]23 | inactive | inactive | inactive | inactive | inactive |  |  |  |  |  |  | 
13 | C/C=C1/C2=CCCN3C(=O)O[C@H]([C@H]1OC(=O)C1CCCCC1)[C@H]23 | inactive | Active | inactive | inactive | inactive |  |  |  |  |  |  | 
14 | C/C=C1/C2=CCCN3C(=O)O[C@H]([C@H]1OC(=O)CCCCCCCCC)[C@H]23 | inactive | inactive | inactive | inactive | inactive | Active |  |  |  |  |  | 
15 | C/C=C1/C2=CCCN3C(=O)O[C@H]([C@H]1OC(=O)/C=C/c1ccccc1)[C@H]23 | inactive | Active | inactive | inactive | inactive |  |  |  |  |  |  | 
16 | C/C=C1/C2=CCCN3C(=O)O[C@H]([C@H]1OC(=O)c1ccccc1)[C@H]23 | inactive | Active | inactive | inactive | inactive |  |  |  |  |  |  | 
